{
  "source": "ChEMBL document CHEMBL4706561",
  "about": "“Efficient chemoenzymatic synthesis of fluorinated sialyl Thomsen-Friedenreich antigens and investigation of their characteristics” (Eur J Med Chem, 2020)",
  "target": "T1, Sialidase (Clostridium perfringens, UniProt P10481)",
  "T1 sequence (P10481 whole entry)": "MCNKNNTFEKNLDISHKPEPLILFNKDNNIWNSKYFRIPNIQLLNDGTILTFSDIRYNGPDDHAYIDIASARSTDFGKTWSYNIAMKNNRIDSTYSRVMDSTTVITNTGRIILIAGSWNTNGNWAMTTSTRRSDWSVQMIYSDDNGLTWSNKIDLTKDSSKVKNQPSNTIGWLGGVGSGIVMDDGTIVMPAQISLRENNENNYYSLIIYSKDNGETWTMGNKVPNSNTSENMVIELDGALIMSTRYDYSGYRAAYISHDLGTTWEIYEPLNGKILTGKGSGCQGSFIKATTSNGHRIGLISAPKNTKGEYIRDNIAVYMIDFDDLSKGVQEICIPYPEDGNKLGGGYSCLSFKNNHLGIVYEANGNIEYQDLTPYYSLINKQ",
  "assay": "Stability in D2O assessed as Clostridium perfringens sialidase-mediated hydrolysis by measuring betaKdn formation at 10 mM measured after 12 hrs by 1H NMR spectroscopy",
  "format": "ADME",
  "conditions": "10000 µM",
  "data": [
    {"smiles": "CC(=O)N[C@H]1[C@@H](OCCCN=[N+]=[N-])O[C@H](CO)[C@H](O)[C@@H]1O[C@@H]1O[C@H](CF)[C@H](O)[C@H](O[C@]2(C(=O)O)C[C@H](O)[C@@H](O)[C@H]([C@H](O)[C@H](O)CO)O2)[C@H]1O", "values": [
      {"measurement": "Drug metabolism", "value": "Metabolite_Notdetected"}
    ]}
  ]
}
